US20110230481A2, “DERIVATIVES OF TETRABROMOBENZIMIDAZOLE, A PROCESS FOR THE PREPARATION THEREOF, A PHARMACEUTICAL COMPOSITION COMPRISING THE SAME, A METHOD OF USING THE SAME, A METHOD FOR MODULATING OR REGULATING SERINE/THREONINE KINASES, AND SERINE/THREONINE KINASES MODULATING AGENT” (SELVITA S.A., priority 2009, published 2011)

What was measured:
Assay in all cases: KINOMEscan Max
Format in all cases: binding
NDR2 = NDR2 (Homo sapiens, UniProt Q9Y2H1)
Protocol: (§1) Kinase panel profiling was performed at Ambit Kinomescan (http://www.ambitbio.com/technology/) using the “KINOMEscan™ Max” assay platform, a high-throughput method for screening small molecule compounds against large numbers of human kinases. KINOMEscan™ is based on a competition binding assay that quantitatively measures the ability of a compound to compete with an immobilized, active-site directed ligand. The assay is performed by combining three components: DNA-tagged kinase; immobilized ligand; and a test compound. The ability of the test compound to compete with the immobilized ligand is measured via quantitative PCR of the DNA tag. For a description of Ambit's assay protocol, see Fabian et al. A small molecule-kinase interaction map for clinical kinase inhibitors. Nat. Biotechnol. 23, 329-336 (2005).

[1] = target: T1, TYK2(JH1domain-catalytic) (Homo sapiens, UniProt P29597); settings: 1 μM
T1 construct: TYK2(JH1domain-catalytic); purchased Ambit Kinomescan (contract screening service)
T1 sequence (P29597 897-1176 limits assumed): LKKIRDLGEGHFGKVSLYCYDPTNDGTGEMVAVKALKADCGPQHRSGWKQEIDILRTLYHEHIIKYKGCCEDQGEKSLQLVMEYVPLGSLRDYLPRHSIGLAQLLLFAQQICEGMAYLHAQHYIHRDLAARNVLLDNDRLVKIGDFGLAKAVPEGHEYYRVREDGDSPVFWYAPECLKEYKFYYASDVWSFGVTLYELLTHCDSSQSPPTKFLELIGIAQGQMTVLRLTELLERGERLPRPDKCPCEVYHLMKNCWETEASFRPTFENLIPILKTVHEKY
Protocol: as §1

YSK1 = target: T2, YSK1 (Homo sapiens, UniProt O00506)
T2 construct: purchased Ambit Kinomescan (contract screening service)
Protocol: as §1

EPHB1 = target: T3, EPHB1 (Homo sapiens, UniProt P54762)
T3 construct: purchased Ambit (KINOMEscan Max panel service)
Protocol: as §1

PIK3CA(C420R) = target: T4, PIK3CA(C420R) (Homo sapiens, UniProt P42336, C420R)
T4 construct: DNA tag (qPCR read-out)
Protocol: as §1

CDC2L2 = target: T5, CDC2L2 (Homo sapiens, UniProt Q9UQ88)
T5 construct: purchased Ambit (KINOMEscan Max service)
Protocol: as §1

RIOK3 = target: T6, RIOK3 (Homo sapiens, UniProt O14730)
T6 construct: DNA tag (qPCR read-out)
Protocol: as §1

PRKG2 = target: T7, PRKG2 (Homo sapiens, UniProt Q13237)
T7 construct: DNA tag (qPCR read-out); purchased Ambit Kinomescan
Protocol: as §1

PLK3 = target: T8, PLK3 (Homo sapiens, UniProt Q9H4B4)
T8 construct: purchased Ambit (KINOMEscan Max service)
Protocol: as §1

MLK2 = MLK2 (Homo sapiens, UniProt Q02779)
MLK2, sequence (Q02779 whole entry): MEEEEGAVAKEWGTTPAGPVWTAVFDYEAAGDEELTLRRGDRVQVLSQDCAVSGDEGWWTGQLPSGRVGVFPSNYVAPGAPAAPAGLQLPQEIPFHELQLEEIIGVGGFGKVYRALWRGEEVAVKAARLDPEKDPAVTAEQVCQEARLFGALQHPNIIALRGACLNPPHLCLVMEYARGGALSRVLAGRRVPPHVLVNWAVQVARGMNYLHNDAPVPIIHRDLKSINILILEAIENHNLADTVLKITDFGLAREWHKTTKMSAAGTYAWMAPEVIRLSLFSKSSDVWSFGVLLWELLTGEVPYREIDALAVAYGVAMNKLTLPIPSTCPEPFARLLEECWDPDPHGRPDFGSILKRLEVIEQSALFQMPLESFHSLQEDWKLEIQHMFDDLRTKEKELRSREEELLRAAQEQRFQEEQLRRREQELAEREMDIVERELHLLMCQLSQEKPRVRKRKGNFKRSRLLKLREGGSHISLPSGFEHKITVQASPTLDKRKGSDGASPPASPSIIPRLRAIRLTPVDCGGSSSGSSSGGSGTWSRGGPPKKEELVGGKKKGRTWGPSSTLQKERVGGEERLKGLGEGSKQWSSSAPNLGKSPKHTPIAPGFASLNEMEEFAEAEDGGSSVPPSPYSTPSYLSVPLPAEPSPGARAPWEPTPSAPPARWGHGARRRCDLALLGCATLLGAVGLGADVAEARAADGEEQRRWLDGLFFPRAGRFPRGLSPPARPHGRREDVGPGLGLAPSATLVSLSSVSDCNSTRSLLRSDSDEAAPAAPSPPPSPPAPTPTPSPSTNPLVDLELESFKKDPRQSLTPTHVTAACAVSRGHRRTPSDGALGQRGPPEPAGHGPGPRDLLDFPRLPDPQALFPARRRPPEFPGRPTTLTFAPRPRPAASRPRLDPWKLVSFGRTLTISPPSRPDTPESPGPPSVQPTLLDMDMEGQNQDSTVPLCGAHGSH
Protocol: as §1

GCN2(Kin.Dom.S808G) = target: T9, GCN2(Kin.Dom.S808G) (Homo sapiens, UniProt Q9P2K8, S808G)
T9 construct: GCN2(Kin.Dom.S808G)
Protocol: as §1

[2] = target: T10, EGFR(L747-E749del. A750P) (Homo sapiens, UniProt P00533, A750P/DEL747-749); settings: 1 μM
T10 construct: purchased Ambit (KINOMEscan Max panel service)
T10 sequence (P00533 with tags, fused parts or gaps DEL747-749/A750P): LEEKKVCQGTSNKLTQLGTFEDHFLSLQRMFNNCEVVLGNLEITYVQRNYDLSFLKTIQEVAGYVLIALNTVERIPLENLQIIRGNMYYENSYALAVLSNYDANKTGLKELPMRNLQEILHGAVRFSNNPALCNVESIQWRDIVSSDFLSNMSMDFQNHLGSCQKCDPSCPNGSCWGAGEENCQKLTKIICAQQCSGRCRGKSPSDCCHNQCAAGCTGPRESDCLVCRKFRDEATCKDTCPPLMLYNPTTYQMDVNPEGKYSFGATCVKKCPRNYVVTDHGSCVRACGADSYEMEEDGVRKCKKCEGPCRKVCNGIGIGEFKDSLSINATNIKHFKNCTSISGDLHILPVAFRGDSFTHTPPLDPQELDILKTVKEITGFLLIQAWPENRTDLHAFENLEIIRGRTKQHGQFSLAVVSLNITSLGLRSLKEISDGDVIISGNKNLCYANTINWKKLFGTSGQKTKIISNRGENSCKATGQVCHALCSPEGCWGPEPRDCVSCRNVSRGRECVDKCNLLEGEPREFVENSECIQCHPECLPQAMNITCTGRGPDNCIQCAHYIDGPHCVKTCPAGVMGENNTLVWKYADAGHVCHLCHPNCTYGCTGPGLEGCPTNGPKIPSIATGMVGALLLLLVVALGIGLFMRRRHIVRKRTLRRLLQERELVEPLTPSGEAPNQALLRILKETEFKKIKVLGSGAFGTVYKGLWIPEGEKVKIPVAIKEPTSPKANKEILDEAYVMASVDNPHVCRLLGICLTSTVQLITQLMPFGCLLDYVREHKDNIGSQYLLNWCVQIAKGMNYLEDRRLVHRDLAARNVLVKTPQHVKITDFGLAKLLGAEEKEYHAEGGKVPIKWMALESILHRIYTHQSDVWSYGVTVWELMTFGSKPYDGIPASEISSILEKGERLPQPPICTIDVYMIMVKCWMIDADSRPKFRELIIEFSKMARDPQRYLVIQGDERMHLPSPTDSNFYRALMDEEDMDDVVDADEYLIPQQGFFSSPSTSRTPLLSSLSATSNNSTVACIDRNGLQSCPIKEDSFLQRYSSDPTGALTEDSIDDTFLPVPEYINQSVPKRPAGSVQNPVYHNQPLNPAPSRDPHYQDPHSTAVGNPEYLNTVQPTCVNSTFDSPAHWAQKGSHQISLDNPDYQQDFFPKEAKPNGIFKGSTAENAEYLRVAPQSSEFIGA
Protocol: as §1

TNK1 = target: T11, TNK1 (Homo sapiens, UniProt Q13470)
T11 construct: DNA tag (qPCR read-out)
Protocol: as §1

MRCKB = MRCKB (Homo sapiens, UniProt Q9Y5S2)
Protocol: as §1

FES = target: T12, FES (Homo sapiens, UniProt P07332)
T12 construct: purchased Ambit Kinomescan (contract panel, KINOMEscan Max)
T12 sequence (P07332 whole entry): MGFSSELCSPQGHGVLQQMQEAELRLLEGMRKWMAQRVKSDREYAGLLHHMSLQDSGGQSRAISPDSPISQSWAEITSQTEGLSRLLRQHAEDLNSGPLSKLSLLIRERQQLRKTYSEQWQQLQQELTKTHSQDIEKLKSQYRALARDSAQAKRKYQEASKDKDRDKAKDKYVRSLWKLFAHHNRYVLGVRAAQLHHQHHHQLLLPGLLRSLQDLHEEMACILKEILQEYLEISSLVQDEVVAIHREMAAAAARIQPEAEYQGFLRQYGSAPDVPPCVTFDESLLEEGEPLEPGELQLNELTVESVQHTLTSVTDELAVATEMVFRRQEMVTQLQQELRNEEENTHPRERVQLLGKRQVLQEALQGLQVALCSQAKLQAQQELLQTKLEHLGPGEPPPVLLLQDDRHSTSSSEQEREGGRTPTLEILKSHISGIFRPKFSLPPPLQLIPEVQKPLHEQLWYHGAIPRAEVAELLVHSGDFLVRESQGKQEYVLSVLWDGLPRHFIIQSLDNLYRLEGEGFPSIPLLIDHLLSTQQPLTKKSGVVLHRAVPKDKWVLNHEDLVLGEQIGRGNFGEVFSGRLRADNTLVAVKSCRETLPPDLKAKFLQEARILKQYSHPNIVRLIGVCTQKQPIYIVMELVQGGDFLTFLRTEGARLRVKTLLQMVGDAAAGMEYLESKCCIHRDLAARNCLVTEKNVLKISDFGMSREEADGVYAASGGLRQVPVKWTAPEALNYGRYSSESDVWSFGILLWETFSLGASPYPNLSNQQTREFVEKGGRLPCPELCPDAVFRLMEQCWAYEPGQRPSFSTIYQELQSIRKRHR
Protocol: as §1

SGK3 = target: T13, SGK3 (Homo sapiens, UniProt Q96BR1)
T13 construct: DNA tag (qPCR read-out)
Protocol: as §1

DMPK2 = DMPK2 (Homo sapiens, UniProt Q6DT37)
Protocol: as §1

EGFR(L861Q) = EGFR(L861Q) (Homo sapiens, UniProt P00533, L861Q); settings: 1 μM
Protocol: as §1

TRPM6 = TRPM6 (Homo sapiens, UniProt Q9BX84)
Protocol: as §1

CAMK1 = target: T14, CAMK1 (Homo sapiens, UniProt Q14012)
T14 construct: purchased Ambit Kinomescan (contract screening)
Protocol: as §1

TNNI3K = target: T15, TNNI3K (Homo sapiens, UniProt Q59H18)
T15 construct: purchased Ambit Kinomescan (contract screening service)
Protocol: as §1

TESK1 = TESK1 (Homo sapiens, UniProt Q15569)
TESK1, sequence (Q15569 whole entry): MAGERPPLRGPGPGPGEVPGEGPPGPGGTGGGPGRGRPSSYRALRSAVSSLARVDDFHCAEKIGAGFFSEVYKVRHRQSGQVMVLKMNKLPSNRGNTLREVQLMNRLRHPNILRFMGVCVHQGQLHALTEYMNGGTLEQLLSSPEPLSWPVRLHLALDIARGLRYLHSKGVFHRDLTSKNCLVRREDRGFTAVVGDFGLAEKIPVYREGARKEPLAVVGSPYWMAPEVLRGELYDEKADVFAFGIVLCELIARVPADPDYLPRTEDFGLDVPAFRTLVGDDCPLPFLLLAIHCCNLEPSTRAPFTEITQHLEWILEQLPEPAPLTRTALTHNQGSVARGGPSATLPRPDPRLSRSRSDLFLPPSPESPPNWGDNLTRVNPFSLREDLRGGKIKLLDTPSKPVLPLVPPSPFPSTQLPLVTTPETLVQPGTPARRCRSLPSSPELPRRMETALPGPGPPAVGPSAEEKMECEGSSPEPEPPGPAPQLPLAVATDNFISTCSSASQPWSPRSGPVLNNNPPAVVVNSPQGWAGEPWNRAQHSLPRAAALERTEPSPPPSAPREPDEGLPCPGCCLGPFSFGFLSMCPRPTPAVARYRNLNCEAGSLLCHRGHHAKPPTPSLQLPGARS
Protocol: as §1

ITK = target: T16, ITK (Homo sapiens, UniProt Q08881); settings: 1 μM
T16 construct: purchased Ambit Kinomescan (contract panel)
Protocol: as §1

CHEK1 = target: T17, CHEK1 (Homo sapiens, UniProt O14757); settings: 1 μM
T17 construct: DNA tag (qPCR read-out)
T17 sequence (O14757 whole entry): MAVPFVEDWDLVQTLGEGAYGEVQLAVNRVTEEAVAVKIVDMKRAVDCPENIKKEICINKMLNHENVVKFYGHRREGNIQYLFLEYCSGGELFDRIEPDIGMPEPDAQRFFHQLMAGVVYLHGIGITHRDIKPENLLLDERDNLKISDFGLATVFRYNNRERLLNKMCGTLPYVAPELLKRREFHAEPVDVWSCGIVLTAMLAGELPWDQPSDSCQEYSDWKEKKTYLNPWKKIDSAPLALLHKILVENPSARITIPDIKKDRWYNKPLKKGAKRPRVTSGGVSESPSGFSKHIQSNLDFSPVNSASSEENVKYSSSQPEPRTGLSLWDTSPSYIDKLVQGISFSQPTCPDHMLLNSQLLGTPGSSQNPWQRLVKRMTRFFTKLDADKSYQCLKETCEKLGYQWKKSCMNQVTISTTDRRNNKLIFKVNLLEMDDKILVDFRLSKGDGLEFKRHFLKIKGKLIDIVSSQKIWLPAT
Protocol: as §1

MYO3B = MYO3B (Homo sapiens, UniProt Q8WXR4)
Protocol: as §1

FLT3(K663Q) = target: T18, FLT3(K663Q) (Homo sapiens, UniProt P36888, K663Q)
T18 construct: purchased Ambit Kinomescan (contract screening)
Protocol: as §1

MST4 = target: T19, MST4 (Homo sapiens, UniProt Q9P289)
T19 construct: DNA tag (qPCR read-out)
Protocol: as §1

MAST1 = MAST1 (Homo sapiens, UniProt Q9Y2H9)
Protocol: as §1

EGFR(T790M) = target: T20, EGFR(T790M) (Homo sapiens, UniProt P00533, T790M); settings: 1 μM
T20 construct: purchased Ambit (KINOMEscan Max panel service)
Protocol: as §1

YANK3 = YANK3 (Homo sapiens, UniProt Q86UX6)
Protocol: as §1

[3] = target: T21, RSK1(Kin.Dom.1-N-terminal) (Homo sapiens, UniProt Q15418)
T21 construct: RSK1(Kin.Dom.1-N-terminal); DNA tag (qPCR read-out)
Protocol: as §1

ABL1-nonphosphorylated = ABL1-nonphosphorylated (Homo sapiens, UniProt P00519)
Protocol: as §1

TEC = target: T22, TEC (Homo sapiens, UniProt P42680)
T22 construct: purchased Ambit Kinomescan (contract screening service)
T22 sequence (P42680 whole entry): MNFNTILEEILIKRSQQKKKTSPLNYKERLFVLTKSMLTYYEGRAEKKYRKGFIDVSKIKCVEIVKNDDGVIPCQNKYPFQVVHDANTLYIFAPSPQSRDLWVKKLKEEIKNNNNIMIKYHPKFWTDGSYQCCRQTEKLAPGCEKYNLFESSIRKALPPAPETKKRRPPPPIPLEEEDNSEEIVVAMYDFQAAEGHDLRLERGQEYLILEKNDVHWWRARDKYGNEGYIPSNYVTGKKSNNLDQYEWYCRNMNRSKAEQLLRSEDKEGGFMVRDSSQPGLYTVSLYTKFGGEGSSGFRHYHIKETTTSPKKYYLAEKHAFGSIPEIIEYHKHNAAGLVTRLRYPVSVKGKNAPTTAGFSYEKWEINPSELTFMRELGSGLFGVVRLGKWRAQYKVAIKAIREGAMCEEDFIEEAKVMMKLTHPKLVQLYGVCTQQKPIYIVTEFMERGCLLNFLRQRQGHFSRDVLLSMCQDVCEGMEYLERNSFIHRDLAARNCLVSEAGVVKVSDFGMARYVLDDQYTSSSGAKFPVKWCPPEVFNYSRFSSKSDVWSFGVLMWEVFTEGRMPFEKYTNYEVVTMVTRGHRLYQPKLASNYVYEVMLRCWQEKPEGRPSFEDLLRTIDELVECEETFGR
Protocol: as §1

What does the source list for `NCCCNc1nc2c(Br)c(Br)c(Br)c(Br)c2[nH]1` [Compound 11, N-(3-aminopropyl)-4,5,6,7-tetrabromo-1H-benzo[d]imidazol-2-amine]?
remaining binding at 1 µM (NDR2): 100%; % binding [1]: 100%; remaining binding at 1 µM (YSK1): 100%; remaining binding at 1 µM (EPHB1): 100%; remaining binding at 1 µM (PIK3CA(C420R)): 100%; remaining binding at 1 µM (CDC2L2): 82%; remaining binding at 1 µM (RIOK3): 52%; remaining binding at 1 µM (PRKG2): 7%; remaining binding at 1 µM (PLK3): 67%; remaining binding at 1 µM (MLK2): 100%; remaining binding at 1 µM (GCN2(Kin.Dom.S808G)): 95%; % binding [2]: 100%; remaining binding at 1 µM (TNK1): 90%; remaining binding at 1 µM (MRCKB): 100%; remaining binding at 1 µM (FES): 100%; remaining binding at 1 µM (SGK3): 100%; remaining binding at 1 µM (DMPK2): 96%; % binding (EGFR(L861Q)): 96%; remaining binding at 1 µM (TRPM6): 91%; remaining binding at 1 µM (CAMK1): 98%; remaining binding at 1 µM (TNNI3K): 100%; remaining binding at 1 µM (TESK1): 93%; % binding (ITK): 100%; % binding (CHEK1): 88%; remaining binding at 1 µM (MYO3B): 100%; remaining binding at 1 µM (FLT3(K663Q)): 97%; remaining binding at 1 µM (MST4): 87%; remaining binding at 1 µM (MAST1): 95%; % binding (EGFR(T790M)): 100%; remaining binding at 1 µM (YANK3): 93%; remaining binding at 1 µM [3]: 100%; remaining binding at 1 µM (ABL1-nonphosphorylated): 100%; remaining binding at 1 µM (TEC): 100%
